Reference: US20210338717A1, “NANOPARTICLE DELIVERY TO A TARGET TISSUE” (THE GOVERNING COUNCIL OF THE UNIVERSITY OF TORONTO, priority 2020, published 2021)

Test system: 4T1 tumour-bearing BALB/c mice
Conditions: mouse, in vivo

increase in absolute accumulation in the liver: 6000 times
increase in absolute nanoparticle accumulation in tumour: 7,300,000 times
liver accumulation: 16 % injected dose/gram
liver accumulation, large single dose vs same dose divided: reduced
tumour accumulation: 16 % injected dose/gram
tumour delivery, large single dose vs same dose divided: increased
Substance: gold nanoparticles
